Laboratory results from patent publication US8623912B2, “Fostriecin derivatives and the pharmaceutical uses thereof” (priority 2008, dated 2014).
pIC50: −log10 of the molar value. Like-named read-outs stand apart in the source and are kept apart here.

How the values were obtained:
[1] = test system: HL60 (human leukemia); test: Celltiter 96 cell proliferation assay (modified MTT method), HL60; type: cell-based; conditions: read-out: IC50 HL60 (human leukemia)
Procedure: (§1) The anti-tumor activities of the compounds of thiophosphorylated FST (A) and methyl phosphorylated FST (B) of the present invention to various tumor cell lines of HL-60, CCRD-CEM and NCI-H460 were determined by Celltiter 96 cell proliferation assay kit (modified MTT method) manufactured by Promega company. Onto a 96-well plate, total volume 50 ul/well was added with about 5-7.5×10^3 cells/well, and cultured for 24 hours, followed by addition of 50 ul of the compounds (0.001 nM˜1000 nM) to each well, and cultured for 72 hours. Subsequently, 15 ul of MTT staining solution was added to the well, temperature was kept for 4 hours, the thus formed precipitate was then dissolved with 100 ul lysis buffe/stop solution. After 1 hour, the content in the well was mixed homogeneously with a shaker, and the abosorption value (OD 570 nm) of each well was measured by enzyme-labeled instrument (Molecular Devices). The data was analyzed with Kaleida Graph Program, and the IC50 value (the concentration of the compound at which the growth of 50% of the cell is inhibited) was calculated.

[2] = test system: alkaline phosphatase; type: in vitro ADME; conditions: FIG. 2; for stability under the action of alkaline phosphatase: 75 mM Tris Buffer pH 8.3, 5 mM MgCl2, 37° C., 2-5 hours; for formation of dephosphorylated FST under alkaline phosphatase: conditions of Example 1
Procedure: Reaction condidtions: FST was dissolved in a solution of 75 mM Tris Buffer (pH 8.3) and 5 mM MgCl2 to obtain a 20 mM FST solution, to each milligram of Fostriecin was added 1 to 1.5 units of alkaline phosphatase, enzymolysis was performed at 37° C. for 2-5 hours.
Thiophosphorylated FST(A) and methyl phosphorylated FST(B) were subjected to hydrolysis of alkaline phosphatase under the reaction condidtions as described in Example 1.

[3] = test system: CCRF-CEM (human leukemia); test: Celltiter 96 cell proliferation assay (modified MTT method), CCRF-CEM; type: cell-based; conditions: read-out: IC50 CCRF-CEM (human leukemia)
Procedure: as §1

[4] = test system: NCI-H460 (human Lung Cancer); test: Celltiter 96 cell proliferation assay (modified MTT method), NCI-H460; type: cell-based; conditions: read-out: IC50 NCI-H460 (human Lung Cancer)
Procedure: as §1

[5] = target: protein phophatase PP2A (Homo sapiens, UniProt P67775); conditions: cited from earlier work
[6] = target: T1, PP4 (Homo sapiens, UniProt P60510); conditions: cited from earlier work
T1 sequence (P60510 1-307): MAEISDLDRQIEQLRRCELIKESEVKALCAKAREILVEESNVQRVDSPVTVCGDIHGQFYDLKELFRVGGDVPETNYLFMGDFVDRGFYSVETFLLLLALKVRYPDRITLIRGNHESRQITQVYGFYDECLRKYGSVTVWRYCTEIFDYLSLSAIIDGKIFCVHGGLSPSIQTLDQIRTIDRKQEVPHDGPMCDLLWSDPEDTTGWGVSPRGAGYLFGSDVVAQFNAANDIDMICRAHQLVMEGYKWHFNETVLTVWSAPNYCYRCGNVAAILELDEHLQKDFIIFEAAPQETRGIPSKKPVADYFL

[7] = HL-60, 72 hours culture with compound, MTT, OD 570 nm
[8] = 72 hours culture with compound, MTT, OD 570 nm
[9] = NCI-H460, 72 hours culture with compound, MTT, OD 570 nm

Sequence of protein phophatase PP2A (P67775 whole entry): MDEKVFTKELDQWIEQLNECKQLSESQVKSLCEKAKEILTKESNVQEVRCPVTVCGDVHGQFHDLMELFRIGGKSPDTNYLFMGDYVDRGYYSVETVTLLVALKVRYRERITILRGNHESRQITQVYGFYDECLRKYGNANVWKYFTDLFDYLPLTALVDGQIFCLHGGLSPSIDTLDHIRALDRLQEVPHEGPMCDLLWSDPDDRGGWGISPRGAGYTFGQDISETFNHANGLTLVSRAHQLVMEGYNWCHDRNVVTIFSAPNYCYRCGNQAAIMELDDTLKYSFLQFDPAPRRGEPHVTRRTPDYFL

Row | Structure (SMILES) | pIC50 ([1]; HL-60, 72 h) | stability under the action of alkaline phosphatase [2] | formation of dephosphorylated FST under alkaline phosphatase [2] | pIC50 ([3]; 72 h) | pIC50 ([4]; NCI-H460, 72 h) | pIC50 [1, 7] | pIC50 [3, 8] | pIC50 [4, 9] | pIC50 [5] | pIC50 [6]
1 | C[C@@](O)(/C=C/C1CC=CC(=O)O1)C(C[C@@H](O)\C=C/C=C\C=C\CO)OP(O)(O)=S (stereo partly drawn) [A] | 4.98 | relatively stable | no dephosphorylated FST was formed | 5.02 | 4.88 | – | – | – | – | –
2 | C[C@@](O)(/C=C/[C@H]1CC=CC(=O)O1)C(C[C@@H](O)\C=C/C=C\C=C\CO)OCP(=O)(O)O (stereo partly drawn) [B] | – | relatively stable | no dephosphorylated FST was formed | – | – | 4.90 | 4.85 | 4.79 | – | –
3 | CC(O)(C=CC1CC=CC(=O)O1)C(CC(O)C=CC=CC=CCO)OP(=O)(O)O (stereo not drawn) [FST, Fostriecin] | – | – | – | – | – | 4.92 | 5.00 | 4.84 | 8.82 | 8.52
